# In patent US5869662A, “Photochromic benzopyran compounds” (Vision-Ease Lens, Inc., priority 1997, dated 1999):
# How the values were obtained:
# [1] = Maximum absorption wavelength (λmax) of the activated form in chloroform under ultraviolet irradiation; type: physicochemical; details: UV irradiation, 350 nm
# Description: Two grams of the propargyl alcohol obtained in Step 1 were mixed with 1.25 grams of 2-hydroxydibenzofuran in 200 milliliters of benzene. Twenty milligrams of p-toluenesultonic acid were then added and the mixture was stirred under reflux for 8 hours. The resultant mixture was cooled and washed with 10% aqueous sodium hydroxide. The organic solvent (benzene) was removed using a rotary evaporator. The resulting material was dissolved in hexane and the resulting hexane solution was cooled to yield a recrystallized product.
# The recrystallized product formed in Step 2 of Example 1; the 3-(4-biphenytyl)-3-phenyl-8-methoxy-3H-naphtho[2,1b]pyran formed in Comparative Example 1; and a purchased sample of 3,3-diphenyl-3H-naphtho-[2,1b]pyran (identified as Comparative Example 2) were each individually dissolved in chloroform in separate containers. These chloroform dissolved substances were then irradiated with ultraviolet light with a maximum wavelength of 350 manometers and measured for maximum absorption wavelength, λmax. The fade time, T1/2, was then determined for each of the irradiated substances. […] The maximum absorption wavelength and fade time determined for the irradiated substances of Example 1 and Comparative Examples 1-2 are presented in Table 1: […]
# [2] = Fade time (T1/2) of the activated form in chloroform at room temperature; type: physicochemical; details: room temperature (72° F.), absorbance of activated form falls to one half of maximum after isolation from UV
# Description: These chloroform dissolved substances were then irradiated with ultraviolet light with a maximum wavelength of 350 manometers and measured for maximum absorption wavelength, λmax. The fade time, T1/2, was then determined for each of the irradiated substances. The fade time for of the chloroform-dissolved substances is defined as the time interval, at room temperature (72° F.), for the absorbance of the activated form of each chloroform-dissolved substance to decrease to one half of the maximum absorbance, after the substance is isolated from the activating source of ultraviolet light.
# [3] = Becker patent; cited from earlier work
Structure (SMILES),"maximum absorption wavelength, λmax (only or shorter-wavelength maximum) [1]","fade time, T1/2 [2]",photochromic at room temperature [3]
"COc1ccc2c3c(ccc2c1)OC(c1ccccc1)(c1ccc(-c2ccccc2)cc1)C=C3 (stereo not shown) [Comparative Example 1, 3-(4-biphenylyl)-3-phenyl-8-methoxy-3H-naphtho[2,1b]pyran]",484 nanometers,,
"C1=CC(c2ccccc2)(c2ccccc2)Oc2ccc3ccccc3c21 [Comparative Example 2, 3,3-diphenyl-3H-naphtho-[2,1b]pyran]",434 nanometers,13 s,photochromic at room temperature
